Where two headings read alike, the source gives them in different places.
Columns and labels:
[1] = tested on: cytochrome (CYP) P450 enzymes; set-up: method as in PMID 26181715; settings: all standard CYP P450 enzymes; read-out: CYP inhibition IC50; cited from earlier work
[2] = Single dose pharmacokinetic study in cynomolgus monkey; type: in vivo
Experimental: Pharmacokinetic studies were conducted in male beagle dogs and male cynomolgus monkeys at SRI International, Menlo Park, CA. General procedures for animal care and housing were in accordance with the National Research Council (NRC) Guide for the Care and Use of Laboratory Animals (1996) and the Animal Welfare Standards incorporated in 9 CFR Part 3, 1991 and complied with guidelines set forth by the ARVO Animal Statement for the Use of Animals in Ophthalmic and Vision Research. During the course of the PK experiments, cynomolgus monkeys were individually housed in stainless steel primary enclosures in an AAALAC-accredited facility. Animals were fed a commercial monkey chow, and supplemental food was provided (fresh fruits, vegetables, seeds, and nuts). Reverse osmosis-purified drinking water was available at all times. Cynomolgus monkeys were maintained on a 12:12 hour light:dark cycle at the 64–84°F temperature and 30–70% humidity. Monkeys had access to enrichment opportunities (grooming devices, foraging devices, activity panels and mirrors) and were provided auditory stimuli and human interaction enrichment throughout the study. Blood samples were collected by venipuncture of a peripheral vein. Animals were acclimated to the squeeze back mechanism in their home cage by repeated, short periods of restraint during general husbandry procedures for at least 2 weeks prior to dosing. Animal were not removed from their cages for collection, and no anesthesia/analgesic agents were used for blood collection. […] For PK experiments, beagle dogs were individually housed in enclosed run (≥ 4 ft x 6 ft). Dogs were exposed to their daily ration of food, Harlan Teklad 2025C Certified Global 25% Protein Dog Diet. Water was provided from the public water supply (municipal tap water) ad libitum. Dogs were maintained on a 12:12 hour light:dark cycle at the 72–73°F temperature and 40–71% humidity. Every effort was made to minimize, if not eliminate, pain and suffering in all animals in this study. No restraining devices were used in blood collecting procedures. Dogs were gentle hand-held to restrain by trained technicians with the dogs foreleg extended for sample collection of blood from cephalic vein. Animals were awake during blood sample collection with no anesthesia/analgesic agents used, and positive reinforcement by the technician was provided following collection. […] All dogs were released back to the colony after the study was completed. Male beagle dogs and male cynomolgus monkey received a single i.v. dose of a test compound at 0.5 mg kg^−1 (dog) and 1 mg kg^−1 (monkey) or a single p.o. dose of a test compound of at 2 mg kg^−1 (dog) and 5 mg kg^−1 (monkey). The number of animals that was used in PK experiments is 3 per study group. Intravenous administration vehicle was 3% DMA/45% PEG300/12% ethanol/40% sterile water; p.o. vehicle was 2% Tween 80 in 0.9% saline. […] Blood samples were processed to plasma. Following protein extraction with acetonitrile, compound concentrations in plasma were measured by LC-MS/MS. The plasma drug level data were analyzed using WinNonlin software package; Model 201 (for i.v. bolus administration);was used for the analysis of i.v. data, and Model 200 (for extravascular administration) was used for the analysis of the p.o. data. Aliquots of pre-dose plasma samples, as well as aliquots of plasma PK samples, were used for the analysis of the plasmabiomarker, RBP4.
Administration to Non-Human Primates
II. MATERIALS AND METHODS

[3] = Cyno, 5.0 mg kg^−1 p.o., mean ± SD, n=3
[4] = male, cynomolgus monkey, plasma, iv, 1 mg/kg, non-human primate, iv 1.0 mg/kg, read-out: Plasma level, Individual animals
[5] = male, cynomolgus monkey, plasma, iv, 1 mg/kg, non-human primate, iv 1.0 mg/kg, read-out: Plasma level, Mean
[6] = male, cynomolgus monkey, plasma, po, 5 mg/kg, non-human primate, po 5 mg/kg, read-out: Plasma level, Individual animals
[7] = male, cynomolgus monkey, plasma, po, 5 mg/kg, non-human primate, po 5 mg/kg, read-out: Plasma level, Mean

%F, bioavailability ([2]; Cyno, 5.0 mg kg^−1 p.o. vs 1.0 mg kg^−1 i.v.): 84.3 ± 24.8%
AUCinf [2, 3]: 826.6 ± 243.1 µg·h/mL
Cmax [2, 3]: 31500 ± 200 ng/mL
AUC(0-inf) ([2]; male, cynomolgus monkey, plasma, iv, 1 mg/kg, Cyno, 1.0 mg kg^−1 i.v., mean ± SD, n=3): 196 ± 42.2 µg·h/mL
Cmax ([2]; male, cynomolgus monkey, plasma, iv, 1 mg/kg, Cyno, 1.0 mg kg^−1 i.v., mean ± SD, n=3, read-out: Cmax, maximum observed concentration at first time point): 11400 ± 600 ng/mL
concentration at 0.0083 hr [2, 4]: 10900 ng/mL
concentration at 0.0083 hr [2, 5]: 11400 ng/mL
concentration at 0.25 hr ([2]; male, cynomolgus monkey, plasma, iv, 1 mg/kg, non-human primate, iv 1.0 mg/kg, 0.25 hr, read-out: Plasma level, Individual animals): 10500 ng/mL
concentration at 0.25 hr ([2]; male, cynomolgus monkey, plasma, iv, 1 mg/kg, non-human primate, iv 1.0 mg/kg, 0.25 hr, read-out: Plasma level, Mean): 10700 ng/mL
concentration at 0.5 hr [2, 4]: 9300 ng/mL
concentration at 0.5 hr [2, 5]: 9570 ng/mL
concentration at 1 hr [2, 4]: 9470 ng/mL
concentration at 1 hr [2, 5]: 9060 ng/mL
concentration at 2 hr [2, 4]: 8910 ng/mL
concentration at 2 hr [2, 5]: 8080 ng/mL
concentration at 4 hr [2, 4]: 7450 ng/mL
concentration at 4 hr [2, 5]: 7080 ng/mL
concentration at 8 hr [2, 4]: 6160 ng/mL
concentration at 8 hr [2, 5]: 5890 ng/mL
concentration at 12 hr [2, 4]: 4470 ng/mL
concentration at 12 hr [2, 5]: 4780 ng/mL
concentration at 24 hr [2, 4]: 2840 ng/mL
concentration at 24 hr [2, 5]: 2930 ng/mL
concentration at 36 hr ([2]; male, cynomolgus monkey, plasma, iv, 1 mg/kg, non-human primate, iv 1.0 mg/kg, 36 hr, read-out: Plasma level, Mean): 1670 ng/mL
concentration at 48 hr ([2]; male, cynomolgus monkey, plasma, iv, 1 mg/kg, non-human primate, iv 1.0 mg/kg, 48 hr, read-out: Plasma level, Mean): 1050 ng/mL
AUC(0-t) ([2]; male, cynomolgus monkey, plasma, iv, Cyno, 1.0 mg kg^−1 i.v., mean ± SD, n=3): 171 ± 27 µg·h/mL
clearance ([2]; male, cynomolgus monkey, plasma, iv, Cyno, 1.0 mg kg^−1 i.v., mean ± SD, n=3, read-out: CL, total body clearance (converted)): 5.25 mL/h/kg
half-life ([2]; male, cynomolgus monkey, plasma, iv, Cyno, 1.0 mg kg^−1 i.v., mean ± SD, n=3, read-out: T1/2, apparent terminal half-life (converted)): 15.6 ± 3.3 h
Vd ([2]; male, cynomolgus monkey, plasma, iv, Cyno, 1.0 mg kg^−1 i.v., mean ± SD, n=3, read-out: Vss, volume of distribution at steady state): 0.113 ± 0.004 L/kg
bioavailability ([2]; male, cynomolgus monkey, plasma, oral, 5 mg kg^−1, Cyno, 5.0 mg kg^−1 p.o. vs 1.0 mg kg^−1 i.v., read-out: %F, bioavailability): ~84%
AUC(0-inf) ([2]; male, cynomolgus monkey, plasma, po, 5 mg/kg, Cyno, 5.0 mg kg^−1 p.o., mean ± SD, n=3): 676 µg·h/mL
Cmax ([2]; male, cynomolgus monkey, plasma, po, 5 mg/kg, Cyno, 5.0 mg kg^−1 p.o., mean ± SD, n=3, read-out: Cmax): 31400 ng/mL
concentration at 0.25 hr ([2]; male, cynomolgus monkey, plasma, po, 5 mg/kg, non-human primate, po 5 mg/kg, 0.25 hr, read-out: Plasma level, Individual animals): 9720 ng/mL
concentration at 0.25 h ([2]; male, cynomolgus monkey, plasma, po, 5 mg/kg, non-human primate, po 5 mg/kg, 0.25 hr, read-out: Plasma level, Mean): 11100 ng/mL
concentration at 0.5 h [2, 6]: 28100 ng/mL
concentration at 0.5 h [2, 7]: 22200 ng/mL
concentration at 1 hr [2, 6]: 24600 ng/mL
concentration at 1 hr [2, 7]: 29800 ng/mL
concentration at 2 hr [2, 6]: 32400 ng/mL
concentration at 2 hr [2, 7]: 31200 ng/mL
Compound: Cc1cc(C(=O)O)nc(N2C[C@H]3C[C@@H](c4ccccc4C(F)(F)F)C[C@H]3C2)n1 [BPN-14136]
IC50 [1]: > 34 µM

Source: paper PMC6980506, “Comparative pharmacokinetics and pharmacodynamics of the advanced Retinol-Binding Protein 4 antagonist in dog and cynomolgus monkey” (PLoS ONE, 2020)
